Experiments:
[1] = system: c-MYC (DNA, G4) GGGGAGGGTGGGGAGGGTGGGGAAGG; experiment: UV melting at 295 nm; conditions: 140 mM NaCl, 0.5 mM KCl; 20 mM Tris-HCl pH 7.3; 2 equivalents of compound, ~3 µM DNA
[2] = system: c-MYC (DNA, G4) GGGGAGGGTGGGGAGGGTGGGGAAGG; experiment: thiazole orange displacement (G4-FID); conditions: 100 mM KCl; 10 mM sodium cacodylate pH 7.3, 18 °C; thiazole orange displaced; from DC50, TO Kb 1.50 × 10^6
[3] = system: WNT1 (DNA, G4) GGGGGCCACCGGGCAGGGGGCGGGGG; experiment: thiazole orange displacement (G4-FID); conditions: 100 mM KCl; 10 mM sodium cacodylate pH 7.3, 18 °C; thiazole orange displaced; from DC50, assumed TO Kb 2.5 × 10^6
[4] = system: VEGF (VEGFA) (DNA, G4) GGGGCGGGCCGGGGGCGGGG; experiment: thiazole orange displacement (G4-FID); conditions: 100 mM KCl; 10 mM sodium cacodylate pH 7.3, 18 °C; thiazole orange displaced; from DC50, assumed TO Kb 2.5 × 10^6
[5] = system: c-KIT (DNA, G4) GGGAGGGCGCTGGGAGGAGGG; experiment: thiazole orange displacement (G4-FID); conditions: 100 mM KCl; 10 mM sodium cacodylate pH 7.3, 18 °C; thiazole orange displaced; from DC50, assumed TO Kb 2.5 × 10^6
[6] = system: BCL2 (DNA, G4) AGGGGCGGGCGCGGGAGGAAGGGGGCGGGAGCGGGGC; experiment: thiazole orange displacement (G4-FID); conditions: 100 mM KCl; 10 mM sodium cacodylate pH 7.3, 18 °C; thiazole orange displaced; from DC50, assumed TO Kb 2.5 × 10^6
[7] = system: KRAS (DNA, G4) GGGCGGTGTGGGAAGAGGGAAGAGGGGGAGG; experiment: thiazole orange displacement (G4-FID); conditions: 100 mM KCl; 10 mM sodium cacodylate pH 7.3, 18 °C; thiazole orange displaced; from DC50, assumed TO Kb 2.5 × 10^6
[8] = system: Tel (DNA, G4) GGGTTAGGGTTAGGGTTAGGGTTA; experiment: thiazole orange displacement (G4-FID); conditions: 100 mM KCl; 10 mM sodium cacodylate pH 7.3, 18 °C; thiazole orange displaced; from DC50, TO Kb 2.62 × 10^6
[9] = system: DNA hairpin (DNA, hairpin) CAATCGGATCGAATTCGATCCGATTG; experiment: thiazole orange displacement (G4-FID); conditions: 100 mM KCl, 10 mM sodium cacodylate pH 7.3, 18 °C, thiazole orange displaced; for Kb: from DC50, TO Kb 3.03 × 10^6
[10] = system: c-MYC (DNA, G4) GGGGAGGGTGGGGAGGGTGGGGAAGG; experiment: thiazole orange displacement (G4-FID); conditions: 100 mM KCl; 10 mM sodium cacodylate pH 7.3, 18 °C; 1 µM thiazole orange displaced, 0.5 µM DNA
[11] = system: WNT1 (DNA, G4) GGGGGCCACCGGGCAGGGGGCGGGGG; experiment: thiazole orange displacement (G4-FID); conditions: 100 mM KCl, 10 mM sodium cacodylate pH 7.3, 18 °C
[12] = system: VEGF (VEGFA) (DNA, G4) GGGGCGGGCCGGGGGCGGGG; experiment: thiazole orange displacement (G4-FID); conditions: 100 mM KCl, 10 mM sodium cacodylate pH 7.3, 18 °C
[13] = system: c-KIT (DNA, G4) GGGAGGGCGCTGGGAGGAGGG; experiment: thiazole orange displacement (G4-FID); conditions: 100 mM KCl, 10 mM sodium cacodylate pH 7.3, 18 °C
[14] = system: BCL2 (DNA, G4) AGGGGCGGGCGCGGGAGGAAGGGGGCGGGAGCGGGGC; experiment: thiazole orange displacement (G4-FID); conditions: 100 mM KCl, 10 mM sodium cacodylate pH 7.3, 18 °C
[15] = system: KRAS (DNA, G4) GGGCGGTGTGGGAAGAGGGAAGAGGGGGAGG; experiment: thiazole orange displacement (G4-FID); conditions: 100 mM KCl, 10 mM sodium cacodylate pH 7.3, 18 °C
[16] = system: Tel (DNA, G4) GGGTTAGGGTTAGGGTTAGGGTTA; experiment: thiazole orange displacement (G4-FID); conditions: 100 mM KCl, 10 mM sodium cacodylate pH 7.3, 18 °C
[17] = system: DNA hairpin (DNA, hairpin) CAATCGGATCGAATTCGATCCGATTG; experiment: thiazole orange displacement (G4-FID); conditions: 100 mM KCl, 10 mM sodium cacodylate pH 7.3, 18 °C
[18] = 1 µM thiazole orange displaced, 0.5 µM DNA
[19] = thiazole orange displaced, above highest stated concentration (10 µM)
[20] = thiazole orange displaced, highest concentration 10 µM

Row | increase in Tm [1] | Kb [2] | Kb [3] | Kb [4] | Kb [5] | Kb [6] | Kb [7] | Kb [8] | Kb [9] | DC50 [10] | DC50 [11, 18] | DC50 [12, 18] | DC50 [13, 18] | DC50 [14, 18] | DC50 [15, 18] | DC50 [16, 18] | DC50 [17, 19] | Compound | further results
1 | 3.5 ± 0.3 °C | 7.76 ± 0.53 × 10^6 M^-1 | 2.83 ± 0.40 × 10^6 M^-1 | 0.86 ± 0.12 × 10^6 M^-1 | 3.28 ± 0.47 × 10^6 M^-1 | 4.12 ± 0.59 × 10^6 M^-1 | 0.93 ± 0.13 × 10^6 M^-1 | 0.43 ± 0.03 × 10^6 M^-1 | 1.30 ± 0.17 × 10^6 M^-1 | 320 ± 20 nM | 1240 ± 170 nM | 4070 ± 570 nM | 1070 ± 150 nM | 850 ± 120 nM | 3760 ± 530 nM | 8420 ± 590 nM |  | C[n+]1cc2c3c(ccc2c2ccc4cc5c(cc4c21)OCO5)OCO3 | DC50 [17, 18]: 3080 ± 400 nM
2 |  | 1.16 ± 0.08 × 10^6 M^-1 | 3.03 ± 0.43 × 10^6 M^-1 | 2.09 ± 0.30 × 10^6 M^-1 | 1.63 ± 0.23 × 10^6 M^-1 | 1.75 ± 0.25 × 10^6 M^-1 | 1.63 ± 0.23 × 10^6 M^-1 | 1.81 ± 0.14 × 10^6 M^-1 | 0.035 ± 0.002 × 10^6 M^-1 | 2160 ± 150 nM | 1160 ± 160 nM | 1670 ± 240 nM | 2150 ± 300 nM | 2000 ± 280 nM | 2150 ± 310 nM | 2000 ± 150 nM | 114290 ± 6530 nM | O=c1c(O)c(-c2ccc(O)cc2)oc2cc(O)cc(O)c12 | 
3 |  | 0.63 ± 0.04 × 10^6 M^-1 | 2.71 ± 0.39 × 10^6 M^-1 | 1.50 ± 0.21 × 10^6 M^-1 | 1.61 ± 0.23 × 10^6 M^-1 | 2.87 ± 0.41 × 10^6 M^-1 | 1.52 ± 0.22 × 10^6 M^-1 | 1.68 ± 0.13 × 10^6 M^-1 |  | 3970 ± 250 nM | 1290 ± 190 nM | 2330 ± 330 nM | 2170 ± 310 nM | 1220 ± 100 nM | 2300 ± 330 nM | 2150 ± 170 nM |  | CC1=CC(=O)C(C(C)C)=CC1=O | binding ([9]; Kb printed as 0, up to 10 µM): no
4 | 3.0 ± 0.3 °C | 5.33 ± 0.36 × 10^6 M^-1 | 2.07 ± 0.30 × 10^6 M^-1 | 3.10 ± 0.44 × 10^6 M^-1 | 3.80 ± 0.54 × 10^6 M^-1 | 5.56 ± 0.79 × 10^6 M^-1 | 1.72 ± 0.25 × 10^6 M^-1 | 7.43 ± 0.55 × 10^6 M^-1 | 0.038 ± 0.004 × 10^6 M^-1 | 470 ± 30 nM | 1690 ± 240 nM | 1130 ± 160 nM | 920 ± 130 nM | 630 ± 90 nM | 2030 ± 300 nM | 490 ± 40 nM | 105260 ± 11080 nM | O=c1c(O)c(-c2ccc(O)c(O)c2)oc2cc(O)cc(O)c12 | 
5 |  | 0.26 ± 0.02 × 10^6 M^-1 |  |  |  |  |  |  |  | 9620 ± 700 nM |  |  |  |  |  |  |  | COc1cc(/C=C/C(=O)CC(=O)/C=C/c2ccc(O)c(OC)c2)ccc1O | DC50 [11, 20]: > 10000 nM; DC50 [12, 20]: > 10000 nM; DC50 [13, 20]: > 10000 nM; DC50 [14, 20]: > 10000 nM; DC50 [15, 20]: > 10000 nM; DC50 [16, 20]: > 10000 nM
6 |  | 2.94 ± 0.20 × 10^6 M^-1 | 2.75 ± 0.39 × 10^6 M^-1 | 1.75 ± 0.25 × 10^6 M^-1 | 1.44 ± 0.21 × 10^6 M^-1 | 3.65 ± 0.52 × 10^6 M^-1 | 1.62 ± 0.23 × 10^6 M^-1 | 1.81 ± 0.14 × 10^6 M^-1 |  | 850 ± 60 nM | 1270 ± 180 nM | 2000 ± 280 nM | 2430 ± 350 nM | 960 ± 140 nM | 2160 ± 310 nM | 2000 ± 150 nM |  | O=C(O[C@@H]1Cc2c(O)cc(O)cc2O[C@@H]1c1cc(O)c(O)c(O)c1)c1cc(O)c(O)c(O)c1 | 

From article PMC9409388 (2022)
